We go through two sequences from US10487143B2, “Vaccines against HER3 antigens and methods of using the same” (Duke University, priority 2016, dated 2019).

Test [1] relates to HLA-A*0201-positive- and HER3-positive MCF-7 cells. The experiment in a line: Human CTL (51Cr release) assay on MCF-7 target cells. The test is classed as cell-based. The note with it: effector to target ratio 25 to 1; for killing of MCF-7 cells by peptide-induced CTL: CTL induced with peptide-loaded (10 μM) human DCs, unloaded MCF-7 targets, FIGS. 2A-2B. As to the method:
(§1) Immature human DCs (Dendritic cells) were loaded for 2 hours at 10 μM with peptides, washed and then co-cultured with untouched autologous T cells (isolated via magnetic bead-based separation) at a DC to T-cell ratio of 1:20 in complete RPMI media supplemented with 12.5 μg/mL pIC, (polyinosinic-polycytidylic acid, Sigma) and 1.0 μg/mL recombinant CD40L plus 1.0 μg/mL Enhancer (Alexis Biochemicals). 20 U/ml of recombinant human Interleukin-2 (IL-2) were added after 3 days and every other day thereafter. Cells were re-stimulated twice after 7 days (DC to T cell ratio of 1:10) and analyzed for cytolytic activity 10 days after the last re-stimulation.
(§2) 2×10^6 target cells were harvested, washed, counted, and labeled with 100 μCi of Na2^51CrO4 (Amersham) in 0.5 ml complete RPMI at 37° C. for 1.5 h. Exogenous loading of cells with 10 μM synthetic peptide was performed simultaneously with labeling reactions. CTLs (untouched CD8^+ T cells isolated via magnetic-bead-based techniques (Miltenyi Biotec)) were washed, counted, and diluted to the desired density in complete RPMI 1640 and plated in duplicate wells in a round-bottomed, 96-well plate. Target cells were washed three times, resuspended in complete RPMI and incubated at 37° C. and 5% CO2. After 1 h, cells were washed one more time, diluted to 10^4 cells/ml and co-incubated with CTLs at indicated effector to target ratio of 25 to 1. The plates were spun briefly at 800×g and incubated for 4-5 h at 37° C. Supernatants were harvested and counted in a gamma counter. Duplicate wells were averaged, and the percentage of specific lysis was calculated as: […]

Test [2] deals with murine CD8+ T cells stimulated with peptide-pulsed T2 cells. The test can be described thus: IFN-γ ELISPOT after peptide vaccination of HLA-A*0201-transgenic mice. The format is in vivo. The note with it: mice immunized with mixture of 100 μg of each peptide in PBS:Montanide ISA 51, 3 weekly vaccinations; CD8+ T cells stimulated with the same epitope on T2 cells; FIG. 1. An excerpt:
To further validate the identified HER-3-derived peptide epitopes (SEQ ID NO: 1 and SEQ ID NO: 3), we vaccinated HLA-A*0201-transgenic mice with these peptides. Female CB6F1-Tg(HLA-A*0201/H2-K^b) A*0201 mice were purchased from Charles River Laboratories (Raleigh, N.C.). These animals carry a transgene consisting of fragments of the human HLA-A*0201 gene and mouse H2-K^b gene which encodes a chimeric class I molecule consisting of the human HLA-A2.1 leader, α1 and α2 domains ligated to the murine α3, transmembrane and cytoplasmic H2-K^b domain Mice were maintained in a specific pathogen-free environment. All mice were used at 8 to 12 weeks of age. Animals were housed in a specific pathogen-free environment at the animal facility of the DUKE University Medical Center. All mice used in this study were cared for in accordance with the Guide for Humane care and use of Laboratory Animals published by the National Institutes of Health. All the animal experimental protocols were approved by the Duke University Medical Center Institutional Animal Care and Use Committee.
Mice were immunized with a mixture of 100 μg of each peptide emulsified in PBS:Montanide ISA 51 (1:1) (SEPPIC, France). […]
ELISPOT assays were performed without re-stimulation of cells. […] Spots of the dried plate were counted using an ImmunoScan ELISPOT reader (C.T.L., Cellular Technology Ltd.).

In test [3] the test system is HLA-A*0201-positive, but HER3-negative LNCaP cells. The test can be described thus: Human CTL (51Cr release) assay on LNCaP target cells. The test is classed as cell-based. The note with it: effector to target ratio 25 to 1, FIG. 2B. As to the method: as §1
as §2, with “After 1 h, cells were washed one more time, diluted to 10^4 cells/ml and co-incubated with CTLs at indicated effector to target ratio of 25 to 1. The plates were spun briefly at 800×g and incubated for 4-5 h at 37° C.” left out

Regarding “LAEVPDLLE (Synthetic HER3 Antigen 1) [HER3917-925]”, the “killing of MCF-7 cells by peptide-induced CTL” value in test [1] is “failed to induce HERS-specific CTLs”. For the same sequence, the “induction of epitope-specific CD8+ T cells producing IFN-γ (ELISPOT)” value in test [2] is recorded as “failed to induce CD8^+ T cells that produced IFN-γ”.
For the sequence “VMVKCWMIDENI (Synthetic HER3 Antigen 3) [HER3943-954]”, the “killing of MCF-7 cells by peptide-induced CTL” value in test [1] is on record as “killed MCF-7 cells efficiently”. Besides, the “killing of epitope-loaded MCF-7 cells by peptide-induced CTL” value in test [1] (target cells loaded with 10 μM HER3943-954, FIG. 2B) was “cytolytic activity could further be enhanced”. Moreover, in test [2], the “induction of epitope-specific CD8+ T cells producing IFN-γ (ELISPOT)” value was “induced epitope-specific CD8^+ T cells”. Besides, in test [3] (LNCaP targets loaded with 10 μM HER3943-954), the “killing of epitope-loaded LNCaP cells by peptide-specific CTL” value is recorded as “Killing”. The “killing of LNCaP cells by peptide-specific CTL” value in test [3] (unloaded HER3-negative LNCaP targets) is reported as “did not kill”.
